Measurements published in patent publication US7264935B2, “Potassium-dependent sodium-calcium exchanger” (Astellas Pharma Inc., priority 2002, dated 2007).

What was measured:
Format in all cases: cell-based
[1] = molecular target: T1, novel potassium-dependent sodium-calcium exchanger consisting of the amino acid sequence of SEQ ID NO: 4 (Homo sapiens, UniProt Q8NFF2); assay: 45Ca uptake screening for inhibition of potassium-dependent sodium-calcium exchange activity in stable-expression Dede cells (SEQ ID NO: 4); conditions: exchanger of SEQ ID NO: 4; conditions of Example 6
T1 construct: expressed in transfected cells
T1 sequence (Q8NFF2 39-603 isoform Q8NFF2-3): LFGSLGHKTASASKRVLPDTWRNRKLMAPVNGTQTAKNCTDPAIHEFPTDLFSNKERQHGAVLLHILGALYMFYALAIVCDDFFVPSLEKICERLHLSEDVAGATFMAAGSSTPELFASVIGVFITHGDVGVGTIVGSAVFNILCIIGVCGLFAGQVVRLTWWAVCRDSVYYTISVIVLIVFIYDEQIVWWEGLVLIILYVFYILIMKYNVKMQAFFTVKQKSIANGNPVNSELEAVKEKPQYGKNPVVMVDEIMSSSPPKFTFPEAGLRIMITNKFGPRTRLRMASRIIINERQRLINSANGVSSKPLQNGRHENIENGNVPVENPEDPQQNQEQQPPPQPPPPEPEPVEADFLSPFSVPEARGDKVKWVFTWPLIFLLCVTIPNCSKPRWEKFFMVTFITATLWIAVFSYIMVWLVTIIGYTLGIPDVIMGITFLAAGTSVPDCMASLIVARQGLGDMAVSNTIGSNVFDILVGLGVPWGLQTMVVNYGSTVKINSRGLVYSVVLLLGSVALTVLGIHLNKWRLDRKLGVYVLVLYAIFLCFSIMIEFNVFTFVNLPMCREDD
Procedure: (§1) Sodium was incorporated into cells by changing the medium to an extracellular solution containing monensin [i.e., a solution containing 0.01 mmol/L monensin, 1 mmol/L ouabain, 146 mmol/L NaCl, 4 mmol/L KCl, 0.1 mmol/L CaCl2, 2 mmol/L MgCl2, 10 mmol/L glucose, 0.1% bovine serum albumin, and 10 mmol/L HEPES-Tris (pH=7.4)] and incubating the cells at 37° C. for 30 minutes. […]
(§2) The treated cells were washed with a washing solution containing 120 mmol/L choline chloride, 10 mmol/L LaCl3, and 10 mmol/L HEPES-Tris (pH=7.4) to remove calcium ions not incorporated, and then an intracellular calcium ion radioactivity was measured and analyzed by a liquid scintillation counter. In the HEK293 cells, Dede cells, or CHO-dhfr^− cells expressing the polypeptide consisting of the amino acid sequence of SEQ ID NO: 2 or 4, a higher radioactivity of approximately two times that obtained in the case of the extracellular solution A was measured when using the extracellular solution B (extracellular solution in which sodium was replaced with choline). Further, higher radioactivities of approximately five times and approximately ten times that obtained in the case of the extracellular solution A were measured when using the extracellular solutions C and D (extracellular solution containing potassium), respectively. […]

[2] = molecular target: T2, novel potassium-dependent sodium-calcium exchanger consisting of the amino acid sequence of SEQ ID NO: 2 (Homo sapiens, UniProt Q8NFF2); assay: 45Ca uptake screening for inhibition of potassium-dependent sodium-calcium exchange activity in stable-expression Dede cells (SEQ ID NO: 2); conditions: exchanger of SEQ ID NO: 2; conditions of Example 6
T2 construct: expressed in transfected cells
T2 sequence (Q8NFF2 39-622): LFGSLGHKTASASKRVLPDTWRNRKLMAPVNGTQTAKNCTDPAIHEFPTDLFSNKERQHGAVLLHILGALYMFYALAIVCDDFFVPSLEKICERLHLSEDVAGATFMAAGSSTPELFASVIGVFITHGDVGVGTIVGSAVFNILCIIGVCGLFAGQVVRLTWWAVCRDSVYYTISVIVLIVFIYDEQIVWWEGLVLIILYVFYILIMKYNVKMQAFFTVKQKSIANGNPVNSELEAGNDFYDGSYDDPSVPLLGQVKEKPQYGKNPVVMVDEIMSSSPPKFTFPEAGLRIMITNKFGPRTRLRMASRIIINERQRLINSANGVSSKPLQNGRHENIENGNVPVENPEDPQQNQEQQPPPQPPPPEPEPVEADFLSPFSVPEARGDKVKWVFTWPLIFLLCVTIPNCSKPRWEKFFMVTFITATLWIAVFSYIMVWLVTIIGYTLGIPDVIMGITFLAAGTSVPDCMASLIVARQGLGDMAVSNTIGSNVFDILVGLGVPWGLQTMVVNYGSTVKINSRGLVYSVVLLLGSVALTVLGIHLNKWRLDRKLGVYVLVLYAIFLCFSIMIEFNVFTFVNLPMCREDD
Procedure: as §1, §2

[3] = tested on: human peripheral polymorphonuclear leukocytes (PMNs); assay: fMLP-stimulated migration test of PMNs in Transwell chemotaxis chamber; conditions: for Number of migrating cells (relative value): 100 nmol/L fMLP, 37° C., 1 hour, DMSO = 100, average ± SD of three experiments; for migration of PMNs (result in words): 10, 30 and 100 μmol/L, fMLP-stimulated
Procedure: The compounds obtained in Example 6 were evaluated using human peripheral polymorphonuclear leukocytes (PMNs). A blood sample was obtained by collecting blood from a healthy adult. A ficoll solution for separation (mono-poly resolving medium; Dainippon Pharmaceutical) was poured into each centrifuge tube, and a fresh blood component was laid on the ficoll solution. Centrifugation was carried out at 400×g at room temperature for 30 minutes to separate the upper layer (monocytes), the intermediate layer (PMNs), and the precipitate (erythrocytes). Each layer was collected in such a way that they were not mixed with each other, suspended in a phosphate buffered saline (PBS), and recentrifuged. Each collected layer was suspended in an RPMI1640 medium containing 0.2% bovine serum albumin (BSA), and used in the following experiment after counting the number of cells. A portion of the resulting PMN component was stained by a hematoxylin and eosin stain to confirm that neutrophils (approximately 95%) and eosinophils (approximately 5%) were contained.
A migration test was carried out using a 24-well disposable chemotaxis chamber Transwell 3 μm; Corning). Each test solution in which compound A or B (final concentration=10 μmol/L, 30 μmol/L, and 100 μmol/L) were contained in a medium (0.2% BSA, RPMI1640 medium) containing 100 nmol/L formylmethionyl-leucinyl-phenylalanine (fMLP) was prepared, and 1 mL of each test solution was added to each of the lower wells. The collected PMNs were added to each of the upper wells (2.0×10^6 cells/well; 0.2 mL) and incubated at 37° C. for 1 hour. The numbers of cells which migrated to the lower wells were counted by a hemacytometer. The test was independently repeated three times.
Each value shown in Table 1 is a relative value when the value obtained in the case of using DMSO instead of the test compounds is regarded as 100. Further, each value shown in Table 1 is an average and a standard deviation (SD) on the basis of three independent experiments.

| Structure (SMILES) | IC50 [1] [µM] | IC50 [2] [µM] | Number of migrating cells (relative value) ([3]; 10 μmol/L compound) | Number of migrating cells (relative value) ([3]; 30 μmol/L compound) | Number of migrating cells (relative value) ([3]; 100 μmol/L compound) | migration of PMNs (result in words) [3] |
| --- | --- | --- | --- | --- | --- | --- |
| N/C(=N\C(=O)c1nc(Cl)c(N)nc1N)NCc1ccc(Cl)c(Cl)c1 [compound B, 3′,4′-dichlorobenzamil] | 58.9 | 20.2 | 100.68 ± 7.27 | 72.90 ± 15.85 | 44.58 ± 32.82 | inhibited the migration of PMNs dose-dependently |
| CS(=O)(=O)O.N=C(N)SCCc1ccc(OCc2ccc([N+](=O)[O-])cc2)cc1 [compound A, 2-[2-[4-(4-nitrobenzyloxy)phenyl]ethyl]isothiourea methanesulfonate] | 35 | 15.8 | 78.18 ± 25.93 | 29.50 ± 26.16 | 16.84 ± 10.78 | inhibited the migration of PMNs dose-dependently |
